Reference: patent US20220363667A1 (Nippon Chemiphar Co., Ltd., priority 2018, published 2022)
Where a name gives a salt, the structure may show the parent alone.

Tests used:
human Cav3.2 channels = target: T1, human Cav3.2 channels (Homo sapiens, UniProt O95180); test: T-type calcium blocking action: intracellular calcium concentration in cells steadily expressing human Cav3.2 channels; type: cell-based; conditions: HEK293 cells steadily expressing human Cav3.2 channels; Fluo-4 AM fluorescence increase after KCl stimulus
T1 construct: expressed in transfected cells
From the text: (1) Construction of Cells Steadily Expressing Human Cav3.2 Channels
A sequence obtained by adding HindIII site and a kozak sequence (GCCACC) to the 5′-side of human Cav3.2 channel ORF (Open Reading Frame) gene and adding a KpnI site to the 3′-side of the gene, was incorporated into pcDNA3.1 (+) (Thermo Fisher Scientific, #V790-20), and the plasmid was introduced into HEK293 cells (ATCC No. CRL-1573) according to the protocol of FuGENE (registered trademark) HD Transfection Reagent (Promega, #E2311).
(2) Method for Measuring Intracellular Calcium Concentration
The cell strain steadily expressing human Cav3.2 channels as produced by the testing method (1) was seeded on a 96-well plate using DMEM including 10% FBS, and the cells were cultured for 48 hours under the conditions of 37° C. and 5% CO2. Subsequently, the medium was removed, and each of the wells were washed with buffer A and treated with 80 μL of a fluorescent dye solution including a mixed liquid of 22 μg of a fluorescent calcium indicator, Fluo-4 AM (Dojindo Molecular Technologies, Inc., #F311), 20 μL of dimethyl sulfoxide (DMSO), 1 μL of 10% Pluronic F-127 (Thermo Fisher Scientific, #P6866), and 4 mL of buffer A. After the cells were left to stand for 45 minutes at room temperature under light-shielded conditions, and then the cells were washed with buffer B. DMSO as a negative control and various test compound solutions each obtained by dissolving a test compound dissolved in DMSO, in buffer B so as to obtain a 10-fold concentration of the evaluation concentration, were introduced into respective wells. The final concentration of DMSO was adjusted to 0.1%. The cells were left to stand for another 15 minutes at room temperature under light-shielded conditions, and measurement was made using a microplate reader, EnVision (PerkinElmer Inc.) using the following method. First, the background fluorescence of each well was measured, subsequently an ionophore was introduced into each well, and the baseline fluorescence was measured. Subsequently, buffer B having 83.8 mM KCl added thereto was introduced, and an increase in fluorescence caused by calcium influx generated by the stimulus was measured for 10 seconds. The percentage inhibition was calculated from the maximum fluorescence increase value from the baseline, the logarithmic value of the test compound concentration and the inhibitory activity are plotted, and thereby the IC50 value was calculated. The measurement was carried out by observing the fluorescence at 510 nm that was emitted when the cells were irradiated with excitation light at 485 nm.
Buffer A: 140 mM NaCl, 5 mM KCl, 1 mM MgCl2, 0.5 mM CaCl2, 10 mM Glucose, 10 mM HEPES, pH 7.3
Buffer B: 137.9 mM Choline-Cl, 4.1 mM KCl, 1 mM MgCl2, 0.5 mM CaCl2, 10 mM Glucose, 10 mM HEPES, pH 7.3, equilibrium potential of potassium: −92 mV

SD rats = test: Rat formalin test; type: in vivo; conditions: po, 30 mg/kg orally once, pain behavior time from 15 to 30 minutes after formalin administration vs vehicle group, read-out: Inhibition ratio (pain behavior inhibition ratio)
Experimental: 30 mg/kg of a vehicle or a test substance was orally administrated to SD rats once, and according to the method described in McNamara C. R., Mandel-Brehm J., Bautista D. M., Siemens J., Deranian K. L., Zhao M., Hayward N. J., Chong J. A., Julius D., Moran M. M., Fanger C. M.: TRPA1 mediates formalin-induced pain. Proc. Natl. Acad. Sci. U.S.A. 104, 2007, 13525-13530, 50 μL of a 2.0% formalin solution as a pain-inducing substance was subcutaneously administered under the skin of the plantar plate of the right hind limb of each rat.
Regarding the evaluation, the pain behavior inhibition ratio was determined from the pain behavior time of each test substance-administered group with respect to the pain behavior time of the vehicle-administered group for 15 minutes measured from 15 minutes to 30 minutes after the administration.

T1 sequence (O95180 whole entry): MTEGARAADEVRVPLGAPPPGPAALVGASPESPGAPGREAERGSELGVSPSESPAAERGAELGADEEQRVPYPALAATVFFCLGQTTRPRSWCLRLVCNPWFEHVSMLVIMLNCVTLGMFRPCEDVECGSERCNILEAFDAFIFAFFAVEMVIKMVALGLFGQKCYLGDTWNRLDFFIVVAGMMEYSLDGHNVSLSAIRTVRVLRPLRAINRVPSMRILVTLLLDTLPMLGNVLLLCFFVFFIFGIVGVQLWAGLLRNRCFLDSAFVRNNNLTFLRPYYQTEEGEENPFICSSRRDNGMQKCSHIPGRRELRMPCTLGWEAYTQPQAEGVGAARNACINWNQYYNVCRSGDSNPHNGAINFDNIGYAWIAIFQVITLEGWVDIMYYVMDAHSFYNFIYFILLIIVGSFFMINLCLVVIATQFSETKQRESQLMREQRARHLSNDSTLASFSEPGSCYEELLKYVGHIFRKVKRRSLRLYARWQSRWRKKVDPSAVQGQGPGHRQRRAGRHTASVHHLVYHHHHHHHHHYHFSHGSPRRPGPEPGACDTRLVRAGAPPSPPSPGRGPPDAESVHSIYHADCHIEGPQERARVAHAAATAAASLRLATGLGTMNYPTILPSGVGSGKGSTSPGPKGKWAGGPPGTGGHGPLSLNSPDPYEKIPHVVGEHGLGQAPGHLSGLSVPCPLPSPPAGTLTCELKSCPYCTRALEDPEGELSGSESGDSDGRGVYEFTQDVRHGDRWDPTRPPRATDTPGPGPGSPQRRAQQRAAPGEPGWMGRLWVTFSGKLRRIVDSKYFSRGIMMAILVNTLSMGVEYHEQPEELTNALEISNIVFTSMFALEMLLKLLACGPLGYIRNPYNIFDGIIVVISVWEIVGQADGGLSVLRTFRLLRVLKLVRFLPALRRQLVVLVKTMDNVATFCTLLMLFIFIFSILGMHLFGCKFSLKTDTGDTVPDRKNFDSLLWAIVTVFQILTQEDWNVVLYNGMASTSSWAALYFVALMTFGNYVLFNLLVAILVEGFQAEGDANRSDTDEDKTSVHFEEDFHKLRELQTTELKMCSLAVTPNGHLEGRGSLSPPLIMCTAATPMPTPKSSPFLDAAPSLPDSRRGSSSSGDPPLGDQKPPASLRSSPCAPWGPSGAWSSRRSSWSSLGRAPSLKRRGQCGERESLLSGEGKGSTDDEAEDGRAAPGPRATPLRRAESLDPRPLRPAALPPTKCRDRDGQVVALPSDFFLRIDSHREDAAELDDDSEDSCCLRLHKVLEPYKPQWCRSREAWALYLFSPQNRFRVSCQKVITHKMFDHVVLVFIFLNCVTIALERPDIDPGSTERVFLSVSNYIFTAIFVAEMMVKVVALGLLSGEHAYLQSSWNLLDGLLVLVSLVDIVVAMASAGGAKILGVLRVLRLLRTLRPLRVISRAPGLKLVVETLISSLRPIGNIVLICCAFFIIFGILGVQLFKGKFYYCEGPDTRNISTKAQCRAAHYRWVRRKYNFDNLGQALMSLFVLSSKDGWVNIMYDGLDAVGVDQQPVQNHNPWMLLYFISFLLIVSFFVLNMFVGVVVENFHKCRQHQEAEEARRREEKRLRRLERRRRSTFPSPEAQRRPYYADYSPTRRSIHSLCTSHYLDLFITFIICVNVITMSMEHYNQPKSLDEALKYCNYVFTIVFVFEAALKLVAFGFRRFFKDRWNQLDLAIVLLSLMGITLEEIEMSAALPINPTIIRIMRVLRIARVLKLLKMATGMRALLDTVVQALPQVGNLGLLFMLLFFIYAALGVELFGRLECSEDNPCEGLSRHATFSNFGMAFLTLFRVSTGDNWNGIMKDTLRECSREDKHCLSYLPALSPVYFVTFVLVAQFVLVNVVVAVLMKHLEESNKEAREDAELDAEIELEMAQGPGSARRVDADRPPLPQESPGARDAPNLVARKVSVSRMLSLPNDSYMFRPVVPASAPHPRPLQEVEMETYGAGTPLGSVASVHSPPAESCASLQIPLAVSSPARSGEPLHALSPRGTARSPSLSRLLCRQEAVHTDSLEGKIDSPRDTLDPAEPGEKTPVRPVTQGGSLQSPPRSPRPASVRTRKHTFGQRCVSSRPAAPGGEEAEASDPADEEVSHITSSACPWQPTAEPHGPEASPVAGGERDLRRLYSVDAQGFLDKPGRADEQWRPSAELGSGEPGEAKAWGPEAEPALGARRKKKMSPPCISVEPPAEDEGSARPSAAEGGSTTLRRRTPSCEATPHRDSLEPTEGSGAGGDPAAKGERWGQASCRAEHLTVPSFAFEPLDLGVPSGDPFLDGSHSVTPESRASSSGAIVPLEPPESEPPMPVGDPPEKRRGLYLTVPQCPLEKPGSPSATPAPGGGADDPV

| IC50 (human Cav3.2 channels) [nM] | Compound | inhibition in vivo at 30 mg/kg (SD rats) [%] |
| --- | --- | --- |
| 1100 | N#Cc1ccc2[nH]c(C3CC3C(=O)N[C@@H]3CCN(c4ccc(C(F)(F)F)nc4)C3)nc2c1 (single isomer, unassigned) [Example 61A] | – |
| 2200 | N#Cc1ccc2[nH]c(C3CC3C(=O)N[C@@H]3CCN(c4ccc(C(F)(F)F)nc4)C3)nc2c1 (single isomer, unassigned) [Example 61B] | – |
| > 10000 | O=C(Cc1ccc(C2CC2)cc1)N[C@@H]1CCN(c2cc(C(F)(F)F)c3nccn3c2)C1 [Example 20, (R)-2-(4-cyclopropylphenyl)-N-(1-(8-(trifluoromethyl)imidazo[1,2-a]pyridin-6-yl)pyrrolidin-3-yl)acetamide] | – |
| 11 | O=C(N[C@@H]1CCN(c2cncc(C(F)(F)F)c2)C1)[C@H]1C[C@@H]1c1nc2cc(F)c(F)cc2o1 [Example 45] | – |
| 470 | O=C(N[C@H]1CCN(c2ccc(C(F)(F)F)nc2)C1)[C@H]1C[C@@H]1c1nc2ccccc2[nH]1 [Example 55, (1S,25)-2-(1H-benzo[d]imidazol-2-yl)-N—((S)-1-(6-(trifluoromethyl)pyridin-3-yl)pyrrolidin-3-yl)cyclopropane-1-carboxyamide] | – |
| 290 | O=C(N[C@@H]1CCN(c2ncc(C(F)(F)F)cn2)C1)[C@H]1C[C@@H]1c1nc2ccccc2[nH]1 [Example 56, (1S,2S)-2-(1H-benzo[d]imidazol-2-yl)-N—((R)-1-(5-(trifluoromethyl)pyrimidin-2-yl)pyrrolidin-3-yl)cyclopropane-1-carboxyamide] | – |
| 4400 | O=C(N[C@@H]1CCN(c2ccc(F)c(C(F)(F)F)c2)C1)[C@H]1C[C@@H]1c1ncc2ccccc2n1 [Example 58, (1S,2S)—N—((R)-1-(4-fluoro-3-(trifluoromethyl)phenyl)pyrrolidin-3-yl)-2-(quinazolin-2-yl)cyclopropane-1-carboxyamide] | – |
| – | O=C(N[C@@H]1CCN(c2cnc(C(F)(F)F)nc2)C1)[C@H]1C[C@@H]1c1nc2ccccc2[nH]1 [Example 70, (1S,2S)-2-(1H-benzo[d]imidazol-2-yl)-N—((R)-1-(2-(trifluoromethyl)pyrimidin-5-yl)pyrrolidin-3-yl)cyclopropane-1-carboxyamide] | < 10 |
| – | O=C(N[C@@H]1CCN(c2cncc(C(F)(F)F)c2)C1)[C@H]1C[C@@H]1c1nc2ccccc2[nH]1 [Example 71, (1S,2S)-2-(1H-benzo[d]imidazol-2-yl)-N—((R)-1-(5-(trifluoromethyl)pyridin-3-yl)pyrrolidin-3-yl)cyclopropane-1-carboxyamide] | < 10 |
| – | O=C(Cc1ccc2ncccc2c1)N[C@@H]1CCN(c2cncc(C(F)(F)F)c2)C1 [Example 77, (R)-2-(quinolin-6-yl)-N-(1-(5-(trifluoromethyl)pyridin-3-yl)pyrrolidin-3-yl)acetamide] | < 10 |
| – | O=C(Cc1ccc2cccnc2c1)N[C@@H]1CCN(c2cncc(C(F)(F)F)c2)C1 [Example 79, (R)-2-(quinolin-7-yl)-N-(1-(5-(trifluoromethyl)pyridin-3-yl)pyrrolidin-3-yl)acetamide hydrochloride] | < 10 |
| – | O=C(Cc1ccc(N2CCC(F)(F)C2)cc1)N[C@@H]1CCN(c2ccc(C(F)(F)F)nc2)C1 [Example 84, (R)-2-(4-(3,3-difluoropyrrolidin-1-yl)phenyl)-N-(1-(6-(trifluoromethyl)pyridin-3-yl)pyrrolidin-3-yl)acetamide] | < 10 |
| – | O=C(Cc1ccc2cc[nH]c2c1)N[C@@H]1CCN(c2ccc(C(F)(F)F)nc2)C1 [Example 85, (R)-2-(1H-indol-6-yl)-N-(1-(6-(trifluoromethyl)pyridin-3-yl)pyrrolidin-3-yl)acetamide] | < 10 |
| – | CC(C)c1ccc(CC(=O)NC2CCN(c3cncc(C(F)(F)F)c3)CC2)cc1 [Example 109, 2-(4-Isopropylphenyl)-N-(1-(5-(trifluoromethyl)pyridin-3-yl)piperidin-4-yl)acetamide] | ≥ 20 |
| – | COc1ncc(N2CC[C@@H](NC(=O)Cc3ccc(C(C)C)cc3)C2)cc1C(F)(F)F [Example 110, (R)-2-(4-isopropylphenyl)-N-(1-(6-methoxy-5-(trifluoromethyl)pyridin-3-yl)pyrrolidin-3-yl)acetamide] | ≥ 20 |
| – | CC(C)c1ccc(CC(=O)N[C@@H]2CCN(c3nc(C(F)(F)F)cs3)C2)cc1 [Example 112, (R)-2-(4-isopropylphenyl)-N-(1-(4-(trifluoromethyl)thiazol-2-yl)pyrrolidin-3-yl)acetamide] | ≥ 20 |
| – | CC(C)c1ccc(CC(=O)N[C@@H]2CCN(c3ccc(C(F)(F)F)nc3)C2)cc1 [Example 113, (R)-2-(4-isopropylphenyl)-N-(1-(6-(trifluoromethyl)pyridin-3-yl)pyrrolidin-3-yl)acetamide] | 10 to 20 |
| – | CC(C)c1ccc(CC(=O)NC2CN(c3cncc(C(F)(F)F)c3)C2)cc1 [Example 117, 2-(4-Isopropylphenyl)-N-(1-(5-(trifluoromethyl)pyridin-3-yl)azetidin-3-yl)acetamide] | ≥ 20 |
| – | O=C(Cc1ccc(C2CC2)cc1)N[C@@H]1CCN(c2ccc(C(F)(F)F)nc2)C1 [Example 121, (R)-2-(4-cyclopropylphenyl)-N-(1-(6-(trifluoromethyl)pyridin-3-yl)pyrrolidin-3-yl)acetamide] | < 10 |
| – | O=C(Cc1ccc(C(F)(F)F)cc1)N[C@@H]1CCN(c2cncc(C(F)(F)F)c2)C1 [Example 123, (R)-2-(4-(trifluoromethyl)phenyl)-N-(1-(5-(trifluoromethyl)pyridin-3-yl)pyrrolidin-3-yl)acetamide] | ≥ 20 |
| – | O=C(Cc1ccc2cc[nH]c2c1)N[C@@H]1CCN(c2cncc(C(F)(F)F)c2)C1 [Example 124, (R)-2-(1H-indol-6-yl)-N-(1-(5-(trifluoromethyl)pyridin-3-yl)pyrrolidin-3-yl)acetamide] | ≥ 20 |
| – | CC(C)(O)c1ccc(CC(=O)N[C@@H]2CCN(c3cncc(C(F)(F)F)c3)C2)cc1 [Example 131, (R)-2-(4-(2-hydroxypropan-2-yl)phenyl)-N-(1-(5-(trifluoromethyl)pyridin-3-yl)pyrrolidin-3-yl)acetamide] | < 10 |
| – | CC(C)(C(=O)N[C@@H]1CCN(c2cncc(C(F)(F)F)c2)C1)c1ccc(C2CC2)cc1 [Example 135, (R)-2-(4-cyclopropylphenyl)-2-methyl-N-(1-(5-(trifluoromethyl)pyridin-3-yl)pyrrolidin-3-yl)propanamide] | < 10 |
| – | NC(C(=O)N[C@@H]1CCN(c2cncc(C(F)(F)F)c2)C1)c1ccc(C2CC2)cc1 (stereo partly drawn) [Example 137, 2-amino-2-(4-cyclopropylphenyl)-N—((R)-1-(5-(trifluoromethyl)pyridin-3-yl)pyrrolidin-3-yl)acetamide] | ≥ 20 |
| – | O=C(Cc1ccc(C(F)(F)F)cc1F)N[C@@H]1CCN(c2cncc(C(F)(F)F)c2)C1 [Example 141, (R)-2-(2-fluoro-4-(trifluoromethyl)phenyl)-N-(1-(5-(trifluoromethyl)pyridin-3-yl)pyrrolidin-3-yl)acetamide] | < 10 |
| – | O=C(Cc1ccc(N2CCOCC2)cc1)N[C@@H]1CCN(c2cncc(C(F)(F)F)c2)C1 [Example 181, (R)-2-(4-morpholinophenyl)-N-(1-(5-(trifluoromethyl)pyridin-3-yl)pyrrolidin-3-yl)acetamide] | ≥ 20 |
